Experimental data reported in publication PMC7699381, “Rare-Earth Metal Complexes of the Antibacterial Drug Oxolinic Acid: Synthesis, Characterization, DNA/Protein Binding and Cytotoxicity Studies” (Molecules, 2020).

What was measured:
[1] = test system: EB-DNA system (CT-DNA); assay: Competitive binding assay with ethidium bromide (EB) through fluorescence spectroscopy; design: species or system calf; conditions: 10 µM CT-DNA, 2 µM EB
Text: The manner of binding to the DNA macromolecule can be investigated through competitive binding studies with ethidium bromide (3,8-diamino-5-ethyl-6-phenylphenanthridinium bromide), a fluorescent dye; due to its aromatic ring, it can intercalate between two adjacent base pairs in the DNA structure and form a complex which emits fluorescent light; displacing EB results in a quenching effect. The Stern-Volmer constant (KSV) and the dissociation constant (K50) have been calculated from the resulting data.
Competitive binding studies were carried out on a Jasco FP 6500 fluorometer at room temperature, using quartz cells of 1 cm path-length. The fluorescence spectra were recorded on 1.6 mL samples containing 10 µM CT-DNA and 2 µM EB in the absence and presence of increasing amounts (0–40 µM with an increment of 5 µM) of complexes and free ligands, respectively, after being kept in contact for 10 min at room temperature, under continuous stirring and in the dark. The excitation wavelength used was 500 nm and the spectra was recorded in the 520–800 nm range. Two control samples were used, the first one containing DMSO, DNA and EB and the second one just the complex.
Data from the assay can be interpreted using the classical Stern-Volmer equation (Equation (3)):(3) F0/F=1+ KSV·[Q] where F0 and F are the fluorescence intensities of the EB-DNA samples in the absence and presence of the tested compounds and [Q] is the concentration of the compound; KSV is the Stern-Volmer constant and can be calculated from the plot of F0/F vs. [Q] as the slope.
The ratio of binding relative to the control sample exposed only to DMSO was plotted against the logarithm of concentration. The data points were fitted using the modified Hill function with offset (Origin®) (Equation (4)):(4) y=A1+(A2−A1)×x^n/K50^n+x^n where y is the ratio of binding (F/F0) and x is the concentration, A1 is the minimum of y values, A2 is the maximum of y values, K50 is the concentration corresponding to 50% binding and n is the Hill coefficient.

[2] = target: T1, Apo-transferrin (apo-Tf) (Homo sapiens, UniProt P02787); assay: Fluorescence quenching of apo-transferrin; format: binding
T1 construct: purchased Sigma Aldrich Chemical Co. (Schnelldorf, Germany)
T1 sequence (P02787 20-698): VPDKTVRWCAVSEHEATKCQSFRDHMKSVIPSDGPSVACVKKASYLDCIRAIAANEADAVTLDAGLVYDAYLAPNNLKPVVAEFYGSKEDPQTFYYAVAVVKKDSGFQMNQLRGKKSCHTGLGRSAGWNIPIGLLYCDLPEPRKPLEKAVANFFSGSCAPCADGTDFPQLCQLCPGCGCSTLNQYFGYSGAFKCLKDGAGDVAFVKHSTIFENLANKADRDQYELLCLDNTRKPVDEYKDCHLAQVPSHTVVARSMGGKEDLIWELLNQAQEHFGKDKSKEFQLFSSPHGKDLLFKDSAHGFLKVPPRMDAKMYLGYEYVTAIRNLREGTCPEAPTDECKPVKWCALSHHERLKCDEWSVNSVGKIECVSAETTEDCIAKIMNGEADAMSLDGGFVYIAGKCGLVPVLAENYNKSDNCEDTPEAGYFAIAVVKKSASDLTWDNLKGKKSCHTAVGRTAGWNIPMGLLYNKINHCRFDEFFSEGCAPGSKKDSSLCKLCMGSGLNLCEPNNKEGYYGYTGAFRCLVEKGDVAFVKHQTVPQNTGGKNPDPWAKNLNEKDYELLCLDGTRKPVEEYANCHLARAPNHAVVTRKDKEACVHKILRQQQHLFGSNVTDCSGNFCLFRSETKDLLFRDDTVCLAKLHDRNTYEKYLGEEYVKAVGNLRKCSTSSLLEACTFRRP

[3] = test system: HUVEC (normal human umbilical vein endothelial cells); assay: MTS cytotoxicity assay, HUVEC normal cells; format: cell-based; conditions: 48 h of incubation
Description: (§1) For the evaluation of the cytotoxic effects of the complexes and ligand two human cancer cell lines were used, namely MDA-MB 231 (human breast adenocarcinoma) and LoVo (human colon adenocarcinoma); a normal cell line, human umbilical vein endothelial cells (HUVEC), was used as a reference. […] After 24 h and 48 h, respectively, cell viability was evaluated through MTS assay (data shown in Figures S16–S18) and the IC50 values were calculated (Table 5). The cytotoxicity assay is based on the ability of metabolically active cells to reduce MTS, a yellow tetrazolium salt, to the colored formazan, soluble in the culture medium; the concentration of formazan can be spectrophotometrically determined. […] PES is a cationic dye with high chemical stability that binds to MTS and forms a stable solution. […] The reduced MTS to formazan was spectrophotometrically measured at λ = 492 nm. The test was run on two cancer cell lines, LoVo and MDA-MB 231, and on a normal cell line, HUVEC. […] Cell viability data were obtained in triplicate (n = 3) and expressed as mean values ± standard deviations (SD). […] All assays were performed in 96-well microtiter plates with flat bottom (Falcon), using CellTiter 96 Aqueous One Solution Cell Proliferation Assay (Promega), an MTS-based colorimetric assay. The formazan was spectrophotometrically measured using the Tecan GENios Spectrophotometer.

[4] = test system: LoVo (human colon adenocarcinoma); assay: MTS cytotoxicity assay, LoVo cells; format: cell-based; conditions: 48 h of incubation
Description: as §1

[5] = target: T2, Human serum albumin (HSA) (Homo sapiens, UniProt P02768); assay: Fluorescence quenching of human serum albumin; conditions: for Ksv (Stern-Volmer constant), HSA: 0–8 µM compound, pH 7.4
T2 sequence (P02768 25-609): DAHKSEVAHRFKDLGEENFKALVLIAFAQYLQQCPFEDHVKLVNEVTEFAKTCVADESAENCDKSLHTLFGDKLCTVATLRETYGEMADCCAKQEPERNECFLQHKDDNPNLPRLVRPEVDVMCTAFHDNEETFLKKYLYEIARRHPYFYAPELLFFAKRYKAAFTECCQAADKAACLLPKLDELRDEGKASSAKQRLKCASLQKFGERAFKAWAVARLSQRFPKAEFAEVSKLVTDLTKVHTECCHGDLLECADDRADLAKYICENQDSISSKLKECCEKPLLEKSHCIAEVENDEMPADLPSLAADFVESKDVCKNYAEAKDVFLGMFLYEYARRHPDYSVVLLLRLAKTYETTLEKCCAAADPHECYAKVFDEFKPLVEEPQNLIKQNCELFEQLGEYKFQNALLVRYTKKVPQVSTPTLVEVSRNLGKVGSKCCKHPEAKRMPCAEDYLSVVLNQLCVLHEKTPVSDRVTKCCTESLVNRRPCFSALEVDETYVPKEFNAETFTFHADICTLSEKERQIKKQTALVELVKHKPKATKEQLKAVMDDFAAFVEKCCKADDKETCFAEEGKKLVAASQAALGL

[6] = target: T2, Human serum albumin (HSA)
[7] = test system: CT-DNA (double-stranded calf-thymus DNA); assay: DNA binding by UV-Vis spectra (titration with CT-DNA); conditions: 20 µM compound, 0–40 µM DNA, Tris-HCl pH 7.4, room temperature
[8] = test system: MDA-MB 231 (human breast adenocarcinoma); assay: MTS cytotoxicity assay, MDA-MB 231 cells; format: cell-based; conditions: 48 h of incubation
Description: as §1

CCn1cc(C(=O)[O][Eu]([OH])[O]C(=O)c2cn(CC)c3cc4c(cc3c2=O)OCO4)c(=O)c2cc3c(cc21)OCO3.O [Eu oxo, [Eu(oxo)(OH)(H2O)]]
Ksv (Stern-Volmer quenching constant, EB-DNA system) ([1]; 0–40 µM compound, λex 500 nm): (1.26 ± 0.02) × 10^4 | K50 (EB Displacement Assay) ([1]; concentration corresponding to 50% binding): 40.15 ± 11.82 µM | quenching effect on apo-Tf fluorescence peak ([2]; 1 µM apo-Tf, compound up to 8 µM, λex 295 nm): 50% | Ka (association binding constant), apo-Tf ([2]; 298 K): (2.74 ± 0.41) × 10^4 M^−1 | n (Hill Coefficient), apo-Tf ([2]; 298 K): 0.95 ± 0.21 | n (Number of Binding Sites), apo-Tf ([2]; 298 K): 0.88 ± 0.01 | Ksv (Stern-Volmer constant), apo-Tf ([2]; 298 K, 1 µM apo-Tf, 0–8 µM compound, pH 7.4): (16.55 ± 0.94) × 10^4 M^−1 | Kq (bimolecular quenching constant), apo-Tf ([2]; 298 K, from KSV = Kq τ0): 1.655e+13 M⁻¹ s⁻¹ | fa (fraction of fluorophore accessible to the quencher), apo-Tf ([2]; 298 K, modified Stern-Volmer): 0.81 ± 0.02 | Kd ([2]; 298 K, read-out: Kd, apo-Tf): 8.27 ± 4.17 µM | IC50 [3]: > 200 µM | IC50 [4]: 107 ± 16 µM | quenching effect on HSA fluorescence peak ([5]; 2.5 µM HSA, compound up to 8 µM, λex 280 nm): ~ 58% | Ka (association binding constant), HSA ([5]; 298 K): (4.75 ± 0.80) × 10^5 M^−1 | n (Hill Coefficient), HSA ([5]; 298 K): 1.33 ± 0.18 | n (Number of Binding Sites), HSA ([5]; 298 K): 1.11 ± 0.01 | Ksv (Stern-Volmer constant), HSA ([5]; 298 K, 2.5 µM HSA): 11.25 (± 0.92) × 10^4 M^−1 | Ksv (Stern-Volmer constant), HSA ([5]; 298 K, 2.5 µM HSA, listed as Eu-oxo): (11.25 ± 0.92) × 10^4 M^−1 | Kq (bimolecular quenching constant), HSA ([5]; 298 K, from KSV = Kq τ0): 1.125e+13 M⁻¹ s⁻¹ | fa (fraction of fluorophore accessible to the quencher), HSA ([5]; 298 K, modified Stern-Volmer): 0.94 ± 0.04 | Kd [6]: 5.56 ± 0.86 µM | Kb (DNA binding constant) [7]: 10.72 (± 2.47) × 10^5 L∙mol^−1 | IC50 [8]: 73.7 ± 19.8 µM
